Measured values: BigSolDB 2.1

O=P(O)(O)c1ccccc1
solubility (mole fraction)
Details	288.15 K	293.15 K	298.15 K	303.15 K	308.15 K	313.15 K	318.15 K
in acetone	0.136	0.155	0.174	0.197	0.22	0.245	0.277
in acetonitrile	0.0136	0.0166	0.0194	0.0228	0.0275	0.0317	0.0365
in chloroform	0.00104	0.00134	0.00164	0.00211	0.00257	0.0032	0.00393
in ethyl acetate	0.00523	0.00634	0.00755	0.00896	0.0106	0.0127	0.0155
in n-propanol	0.305	0.336	0.358	0.388	0.417	0.445	0.47
